Laboratory results from patent publication US20130115628A1, “METHOD FOR SELECTION OF CHEMOTHERAPEUTIC AGENTS FOR ADENOCARCINOMA CANCER” (VENTANA MEDICAL SYSTEMS, INC., priority 2011, published 2013).

Experiments:
[1] = system: pancreatic adenocarcinoma; assay: Retrospective study of tumor hENT1 expression (IHC, SP120) and overall survival in RTOG 9704 patients given adjuvant gemcitabine or 5FU; type: in vivo, human; design: Median OS in Gem hENT1-Low Patients / Median OS in Gem hENT1-High Patients: unit not given here; details: for median OS as hENT1 expression increases from No to Low to High: Method Five (percent negative staining), FIG. 18; for median OS as hENT1 expression increases from Negative to Weak to Moderate to Strong: Method Four (staining intensity), FIG. 30; for median OS as hENT1 expression (H-score subgroup) increases: Method One (H-score), FIG. 22; for OS across High, Mid and No hENT1 subgroups: Method Six with No hENT1 category (membranes resolvable at 10×), FIGS. 33-34; for OS of Low hENT1 subgroup compared to High hENT1 subgroup: Method Six; for median OS as hENT1 expression increases from Negative to Segmental to Diffuse: Method Three (staining pattern), FIG. 26; for OS of subgroup N, 20× or 40× compared to subgroup PP at 2×, 4× or 10×: Method Two (magnification), FIGS. 15-16; for HR (CI) for hENT1-Low vs -High in Gem Patients / HR for Gem vs 5-FU in hENT1-High Patients / HR for Gem vs 5-FU in hENT1-Low Patients: overall survival
Description: Method One for determining a hENT1 endpoint is an H-score. The H-score is a continuous variable that takes into account both the percentage of cells that are positive for the antigen in question, as well as the intensity of staining with the relevant antibody (McCarty et al. (1986) Cancer Research (Supp) 46, 4244s-4248s). A scoring algorithm was used to capture the hENT1 expression results. […]
Method Four for determining a hENT1 endpoint is based on highest percentage of hENT1 membrane staining intensity. The staining intensity for a tissue core is determined using the parameters described for the H-score (0, 1+, 2+, 3+). The percentage of each parameter represented by the tumor is determined. If a score of only 0 is obtained, the endpoint is considered Negative (N). For all other samples (e.g. those that contain scores with 0, 1+, 2+, and/or 3+), the endpoint is determined by the non-0 membrane intensity represented in the highest percentage (see FIG. 1). For example, if the sample is 50% 0, 20% 1+, 30% 2+ and 0% 3+, such sample would be referred to as 2+. If 2 intensities have the same percentage then the lower of the 2 intensities is used. A staining intensity score of 0 is referred to as Negative (N), a staining intensity score of 1+ is referred to as Weak (W), a staining intensity score of 2+ is referred to as Moderate (M), and a staining intensity score of 3+ is referred to as Strong (S). If there are multiple evaluations made on a patient, the maximum result (i.e., S>M>W) from the evaluations is used. There may be circumstances where if multiple evaluations are made on a patient, the minimum result from the evaluations is used. […]

pancreatic cancer = details: Stage III/IV disease, gemcitabine monotherapy; cited from earlier work
[2] = 50% tumor staining, Low group: >50% of tumor is negative
[3] = Magnification (intensity), Low group: unequivocal membranes visible only at 20x, 40x or negative
[4] = Magnification and % tumor staining, Low group: membranes visible only at 20x, 40x or negative OR >=50% of tumor is negative
[5] = High = PP at 2×, 4× and/or 10× AND negative tumor tissue <=50%, FIGS. 7-8
[6] = High = at least 50% of tumor displays membrane staining at 10× ocular, FIGS. 4-5
[7] = staining variable H-score, Low group: H-score <50

Structure (SMILES): Nc1ccn([C@@H]2O[C@H](CO)[C@@H](O)C2(F)F)c(=O)n1 [gemcitabine]
- Median OS in Gem hENT1-High Patients [1, 2]: 19.6
- Median OS in Gem hENT1-Low Patients [1, 2]: 14.2
- Median OS in Gem hENT1-High Patients [1, 3]: 21.0
- Median OS in Gem hENT1-Low Patients [1, 3]: 14.8
- Median OS in Gem hENT1-High Patients [1, 4]: 24.2
- Median OS in Gem hENT1-Low Patients [1, 4]: 14.8
- median OS as hENT1 expression increases from No to Low to High [1]: increases
- OS of No hENT1 subgroup compared to Low and High hENT1 subgroups ([1]; Method Five, FIG. 19): exhibited shorter OS
- OS of patients with observable hENT1 expression (Low and High combined) compared to no hENT1 expression ([1]; Method Five, FIG. 20): exhibit longer OS
- median OS as hENT1 expression increases from Negative to Weak to Moderate to Strong [1]: increases
- OS of negative hENT1 subgroup compared to Weak, Moderate or Strong subgroups ([1]; Method Four, FIG. 31): exhibited shorter OS
- median OS as hENT1 expression (H-score subgroup) increases [1]: increases
- OS of subgroup H-score<=20 compared to H-score between 20 and 80 and H-score>=80 ([1]; Method One, FIG. 23): exhibited shorter OS
- OS of patients with H-score>=50 compared to H-score <50 ([1]; Method One, FIG. 24): exhibited longer OS
- OS across High, Mid and No hENT1 subgroups [1]: the subgroup with No hENT1 expression exhibited the shortest OS followed by the Mid hENT1 subgroup and the High hENT1 subgroup had the longest OS
- OS of Low hENT1 subgroup compared to High hENT1 subgroup [1, 5]: exhibited shorter OS
- OS of Low hENT1 subgroup compared to High hENT1 subgroup [1, 6]: exhibited shorter OS
- median OS as hENT1 expression increases from Negative to Segmental to Diffuse [1]: increases
- OS of negative hENT1 subgroup compared to Segmental or Diffuse subgroups ([1]; Method Three, FIG. 27): exhibited shorter OS
- OS of patients with detectable hENT1 expression (S or D) compared to no hENT1 expression ([1]; Method Three, FIG. 28): exhibit longer OS
- OS of subgroup N, 20× or 40× compared to subgroup PP at 2×, 4× or 10× [1]: exhibited shorter OS
- median overall survival of hENT1-high patients compared to hENT1-low patients ([1]; for each of the hENT1 cut-offs of Table 2): longer
- HR (CI) for hENT1-Low vs -High in Gem Patients [1, 2]: 0.61
- HR for Gem vs 5-FU in hENT1-High Patients [1, 2]: 0.84
- HR for Gem vs 5-FU in hENT1-Low Patients [1, 2]: 1.37
- HR (CI) for hENT1-Low vs -High in Gem Patients [1, 3]: 0.67
- HR for Gem vs 5-FU in hENT1-High Patients [1, 3]: 0.87
- HR (CI) for hENT1-Low vs -High in Gem Patients [1, 4]: 0.58
- HR for Gem vs 5-FU in hENT1-High Patients [1, 4]: 0.77
- HR (CI) for hENT1-Low vs -High in Gem Patients [1, 7]: 0.63
- HR for Gem vs 5-FU in hENT1-High Patients [1, 7]: 0.86
- HR for Gem vs 5-FU in hENT1-Low Patients [1, 7]: 1.35
- Median OS in Gem hENT1-High Patients [1, 7]: 19.6
- Median OS in Gem hENT1-Low Patients [1, 7]: 14.2
- median OS (pancreatic cancer): 5-7 months

Structure (SMILES): O=c1[nH]cc(F)c(=O)[nH]1 [5FU, 5-Fluorouracil]
- median OS as hENT1 expression increases from No to Low to High [1]: do not demonstrate an improvement in OS with increasing hENT1 expression
- median OS as hENT1 expression increases from Negative to Weak to Moderate to Strong [1]: do not demonstrate an improvement in OS with increasing hENT1 expression
- median OS as hENT1 expression (H-score subgroup) increases [1]: do not demonstrate an improvement in OS with increasing hENT1 expression
- OS across High, Mid and No hENT1 subgroups [1]: do not demonstrate improvement in OS between the High, Mid and No hENT1 subgroups
- OS of Low hENT1 subgroup compared to High hENT1 subgroup [1, 5]: do not demonstrate improvement in OS between the High and Low subgroups
- OS of Low hENT1 subgroup compared to High hENT1 subgroup [1, 6]: do not demonstrate improvement in OS between the High and Low subgroups
- median OS as hENT1 expression increases from Negative to Segmental to Diffuse [1]: do not demonstrate an improvement in OS with increasing hENT1 expression
- OS of subgroup N, 20× or 40× compared to subgroup PP at 2×, 4× or 10× [1]: do not demonstrate an improvement in OS
